Assay results from patent publication US20060205772A1, “Amide derivatives and their use as inhibitors of 11-beta-hydroxysteroid dehydrogenase type I” (priority 2003, published 2006).

Row | Compound | melting point [°C]
1 | Cc1ccc(NC(=O)c2ccc(C(=O)N3CCC[C@H]4CCCC[C@@H]43)cc2)cc1 (racemic) [Example 22, 4-[(4aS*,8aR*)-Octahydro-1(2H)-quinoline-1-carbonyl]-N-p-tolylbenzamide] | 199 to 203
2 | O=C(Nc1ccc(C(=O)N2CCC[C@H]3CCCC[C@@H]32)cn1)c1ccc(Cl)cc1Cl (racemic) [Example 25, 2,4-Dichloro-N-{5-[(4aS*,8aR*)-octahydro-1(2H)-quinoline-1-carbonyl]-pyridin-2-yl}-benzamide] | 202 to 203
3 | O=C(Nc1ccc(C(=O)N2CCC[C@H]3CCCC[C@@H]32)cn1)c1ccc(F)cc1 (racemic) [Example 26, 4-Fluoro-N-{5-[(4aS*,8aR*)-octahydro-1(2H)-quinoline-1-carbonyl]-pyridin-2-yl}-benzamide] | 144 to 145
4 | COc1ccc(C(=O)Nc2ccc(C(=O)N3CCC[C@H]4CCCC[C@@H]43)c3ccccc23)cc1OC (racemic) [Example 27, 3,4-Dimethoxy-N-{4-[(4aS*,8aR*)-octahydro-1(2H)-quinoline-1-carbonyl]-naphthalen-1-yl}-benzamide] | 251 to 260
5 | O=C(Nc1cccc(-c2ccc(C(=O)N3CCC[C@H]4CCCC[C@@H]43)o2)c1)c1ccccc1 (racemic) [Example 34, N-{3-[5-((4aS*,8aR*)-Octahydro-1(2H)-quinoline-1-carbonyl)-furan-2-yl]-phenyl}-benzamide] | 62 to 64
6 | CC1=C(C(=O)N2CCC[C@@H]3CCCC[C@H]32)Cc2ccccc21 (racemic) [Example 36, (3-Methyl-H-inden-2-yl)-(4aS*,8aR*)-octahydro-1(2H)-quinolin-1-yl-methanone] | 98 to 100
7 | CC1(C)CC[C@H]2[C@@H](CCCN2C(=O)c2ccc(NC(=O)c3ccc(Cl)cc3Cl)cc2)C1 (racemic) [Example 44, 2,4-Dichloro-N-[4-((4aS*,8aS*)-6,6-dimethyl-octahydro-1(2H)-quinoline-1-carbonyl)-phenyl]-benzamide] | 220 to 221
8 | O=C(Nc1ccc(C(=O)N2CCC[C@H]3CC(O)CC[C@@H]32)cc1)c1ccc(Cl)cc1Cl (relative stereo) [Example 41, 2,4-Dichloro-N-[4-((4aS*,6S*,8aS*)-6-hydroxy-octahydro-1(2H)-quinoline-1-carbonyl)-phenyl]-benzamide] | 183 to 184
9 | CN(CC1CCCCC1)C(=O)c1ccc(NC(=O)c2ccc(F)cc2)cc1 [Example 1, N-Cyclohexylmethyl-4-fluorobenzoylamino-N-methylbenzamide] | 158 to 160
10 | C[C@H]1CCCC[C@@H]1N(C)C(=O)c1ccc(NC(=O)c2ccc(Cl)cc2Cl)cc1 [Example 8-8] | 80 to 90
11 | CN(C(=O)c1ccc(NC(=O)c2ccc(Cl)cc2Cl)cc1)C1CC2CCC1C2 (centres unmarked) [Example 8-9] | 85 to 100
